Laboratory results as given in PMC3914206.

Experiments:
Type in all cases: binding
Details in all cases: Compound Concentration 10 µM
panel of 442 kinases [1] = molecular target: T1, panel of 442 kinases (Homo sapiens, UniProt Q9HCP0)
T1 construct: purchased KINOMEscan
From the text: (§1) We assessed the selectivity of members of this scaffold using the KINOMEscan methodology across a near comprehensive panel of 442 kinases [[18,27]].

panel of 442 kinases [2] = molecular target: T2, panel of 442 kinases (Homo sapiens, UniProt P37023)
T2 construct: purchased KINOMEscan
T2 sequence (P37023 22-503): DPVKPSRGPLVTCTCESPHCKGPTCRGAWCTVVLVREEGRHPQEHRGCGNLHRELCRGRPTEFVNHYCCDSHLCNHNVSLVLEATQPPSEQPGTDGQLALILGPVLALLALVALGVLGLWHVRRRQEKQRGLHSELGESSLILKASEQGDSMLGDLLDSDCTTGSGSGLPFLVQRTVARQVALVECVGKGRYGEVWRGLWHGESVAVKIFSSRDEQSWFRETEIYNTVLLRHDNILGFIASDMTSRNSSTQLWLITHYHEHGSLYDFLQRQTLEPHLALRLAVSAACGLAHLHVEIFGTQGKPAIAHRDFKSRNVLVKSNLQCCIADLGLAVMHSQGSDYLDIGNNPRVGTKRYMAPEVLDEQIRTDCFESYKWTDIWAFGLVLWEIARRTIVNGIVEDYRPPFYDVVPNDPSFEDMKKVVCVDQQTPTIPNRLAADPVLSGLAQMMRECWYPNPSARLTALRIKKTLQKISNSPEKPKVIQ
From the text: as §1

panel of 442 kinases [3] = molecular target: T3, panel of 442 kinases (Homo sapiens, UniProt Q9NQU5)
T3 construct: purchased KINOMEscan
T3 sequence (Q9NQU5 whole entry): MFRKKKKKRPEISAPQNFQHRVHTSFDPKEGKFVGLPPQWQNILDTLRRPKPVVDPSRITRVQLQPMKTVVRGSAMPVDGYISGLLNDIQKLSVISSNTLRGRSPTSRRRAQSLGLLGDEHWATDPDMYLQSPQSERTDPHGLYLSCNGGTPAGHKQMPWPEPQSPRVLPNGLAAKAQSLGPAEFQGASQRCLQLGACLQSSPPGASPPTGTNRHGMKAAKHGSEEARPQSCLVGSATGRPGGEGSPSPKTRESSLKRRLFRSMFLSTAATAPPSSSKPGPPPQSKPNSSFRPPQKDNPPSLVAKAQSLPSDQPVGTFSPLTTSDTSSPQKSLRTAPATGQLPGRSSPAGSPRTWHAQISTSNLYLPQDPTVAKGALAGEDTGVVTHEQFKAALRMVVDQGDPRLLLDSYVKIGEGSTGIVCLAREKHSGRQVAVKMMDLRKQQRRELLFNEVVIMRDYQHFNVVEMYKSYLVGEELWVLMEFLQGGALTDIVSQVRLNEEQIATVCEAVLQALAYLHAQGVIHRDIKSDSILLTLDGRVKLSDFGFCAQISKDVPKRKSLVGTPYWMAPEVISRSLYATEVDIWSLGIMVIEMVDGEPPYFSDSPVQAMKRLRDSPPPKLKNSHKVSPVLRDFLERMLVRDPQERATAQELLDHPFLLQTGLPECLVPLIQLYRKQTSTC
From the text: as §1

T1 sequence (Q9HCP0 whole entry): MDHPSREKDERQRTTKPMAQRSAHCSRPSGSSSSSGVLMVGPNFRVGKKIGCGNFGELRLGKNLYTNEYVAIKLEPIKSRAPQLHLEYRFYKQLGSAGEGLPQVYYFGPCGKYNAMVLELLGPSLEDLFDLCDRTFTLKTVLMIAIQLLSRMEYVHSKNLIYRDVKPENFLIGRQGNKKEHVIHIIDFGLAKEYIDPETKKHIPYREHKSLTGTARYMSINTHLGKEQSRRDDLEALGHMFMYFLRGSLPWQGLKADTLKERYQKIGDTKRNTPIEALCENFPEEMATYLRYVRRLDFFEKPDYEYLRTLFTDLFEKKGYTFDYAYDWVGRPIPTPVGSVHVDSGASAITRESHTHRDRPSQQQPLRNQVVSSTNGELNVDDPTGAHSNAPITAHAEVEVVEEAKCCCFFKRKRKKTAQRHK

| Compound | KINOMEscan: CSNK1G1 (panel of 442 kinases [1]) | KINOMEscan: ACVRL1 (panel of 442 kinases [2]) | KINOMEscan: PAK6 (panel of 442 kinases [3]) |
| --- | --- | --- | --- |
| COc1cc(C(=O)N2CCC(N3CCN(C)CC3)CC2)ccc1Nc1ncc2c(n1)N(C)c1ccccc1C(=O)N2C [15 (LRRK2-IN-1)] | 100 | 100 | 98 |
| COc1cc(C(=O)N2CCC(N3CCN(C)CC3)CC2)ccc1Nc1ncc2c(n1)N(C1CCCC1)c1ccccc1C(=O)N2C [Compound 25, 11-cyclopentyl-2-((2-methoxy-4-(4-(4-methylpiperazin-1-yl)piperidine-1-carbonyl)phenyl)amino)-5-methyl-5H-benzo[e]pyrimido[5,4-b][1,4]diazepin-6(11H)-one] | 73 | 100 | 86 |
| CCOc1cc(C(=O)N2CCC(N3CCN(C)CC3)CC2)ccc1Nc1ncc2c(n1)N(C1CCCC1)c1ccccc1C(=O)N2C [Compound 26] | 98 | 100 | 100 |
